According to paper PMC9931918, “Conjugation to a cell-penetrating peptide drives the tumour accumulation of the GLP1R antagonist exendin(9-39)” (European Journal of Nuclear Medicine and Molecular Imaging, 2022):

Key:
in vivo = assay: in vivo; parameters: species or system BALB/c nude mice; details: BALB/c nude, mouse, iv, 20 pmol/mouse, total radioactivity
Procedure: Mice were injected subcutaneously on the right flank with 0.2 mL of a cell suspension containing 15,000,000 INS-1 cells/mL in RPMI (3,000,000 cells/mouse). When the tumours were 2–5 mm in diameter, mice were randomly divided into groups and the experiment was performed. All mice were intravenously injected with 20 pmol/mouse (0.37 MBq/mouse) of the corresponding radiolabelled exendin variant in approximately 200 μL PBS/0.5% BSA. 12 mice received [^111In]In-DTPA-exendin-4 (referred to as exendin-4), 12 mice received [^111In]In-DTPA-exendin-4-Pen (referred to as exendin-4-Pen), 11 mice received [^111In]In-DTPA-exendin(9-39) (referred to as exendin(9-39) and 11 mice received [^111In]In-DTPA-exendin(9-39)-Pen (referred to as exendin(9-39)-Pen). To determine non-specific uptake, an excess of unlabelled peptide was injected (blocking group). A 100-fold excess of unlabelled DTPA-exendin-4 or DTPA-exendin(9-39) was co-injected (5 or 6 mice per group). Blocking groups were only included at the 4 h timepoint, to reduce the number of mice used as a control. After 1 h and 4 h after injection, mice were euthanized by CO2/O2 asphyxiation. Blood, tumours and relevant tissues (muscle, heart, lung, spleen, pancreas, kidney, liver, stomach, duodenum and colon) of all animals were dissected, weighed and measured in a gamma-counter (2480 Wizard 3”, LKB/Wallace, Perkin-Elmer, Waltham, MA, USA). The percentage injected dose per gram tissue (% ID/g) was determined for each tissue, based on the cpm measured for diluted injection mixtures (standards). For the statistical analysis, the data were log transformed to correct for differences in the intra-group spread and ensure a normal distribution. The difference in tumour uptake between the four compounds was evaluated separately for each timepoint, with a one-way ANOVA and Tukey’s post hoc test. We accepted a type I alpha error of 0.05. The number of animals per group was selected assuming an SD of 10% of the mean, to reach a statistical power of 80% (beta type error = 0.2).

CHL-GLP1R cells = assay: Binding and internalisation assay of 111In-labelled exendin variants on GLP1R-positive cells; assay type: cell-based, Chinese hamster

CC[C@H](C)[C@H](NC(=O)[C@H](Cc1ccccc1)NC(=O)[C@H](CC(C)C)NC(=O)[C@H](CCCNC(=N)N)NC(=O)[C@@H](NC(=O)[C@H](C)NC(=O)[C@H](CCC(=O)O)NC(=O)[C@H](CCC(=O)O)NC(=O)[C@H](CCC(=O)O)NC(=O)[C@H](CCSC)NC(=O)[C@H](CCC(N)=O)NC(=O)[C@H](CCCCN)NC(=O)[C@H](CO)NC(=O)[C@H](CC(C)C)NC(=O)[C@@H](N)CC(=O)O)C(C)C)C(=O)N[C@@H](CCC(=O)O)C(=O)N[C@@H](Cc1c[nH]c2ccccc12)C(=O)N[C@@H](CC(C)C)C(=O)N[C@@H](CCCCN)C(=O)N[C@@H](CC(N)=O)C(=O)NCC(=O)NCC(=O)N1CCC[C@H]1C(=O)N[C@@H](CO)C(=O)N[C@@H](CO)C(=O)NCC(=O)N[C@@H](C)C(=O)N1CCC[C@H]1C(=O)N1CCC[C@H]1C(=O)N1CCC[C@H]1C(=O)N[C@@H](CO)C(=O)N[C@@H](CCCNC(=N)N)C(=O)N[C@@H](CCC(N)=O)C(=O)N[C@H](C(=O)N[C@@H](CCCCN)C(=O)N[C@H](C(=O)N[C@@H](Cc1c[nH]c2ccccc12)C(=O)N[C@@H](Cc1ccccc1)C(=O)N[C@@H](CCC(N)=O)C(=O)N[C@@H](CC(N)=O)C(=O)N[C@@H](CCCNC(=N)N)C(=O)N[C@@H](CCCNC(=N)N)C(=O)N[C@@H](CCSC)C(=O)N[C@@H](CCCCN)C(=O)N[C@@H](Cc1c[nH]c2ccccc12)C(=O)N[C@@H](CCCCN)C(=O)N[C@@H](CCCCNC(=O)CN(CCN(CCN(CC(=O)O)CC(=O)O)CC(=O)O)CC(=O)O)C(N)=O)[C@@H](C)CC)[C@@H](C)CC [[111In]In-exendin(9-39)-Pen, metal not drawn]
tissue uptake at 1 h (in vivo; pancreatic uptake): 2.2 ± 0.3 %ID/g
tissue uptake at 4 h (in vivo; pancreatic uptake): 1.2 ± 0.2 %ID/g
tissue uptake at 1 h (in vivo; tumour accumulation): 8.6 ± 2.2 %ID/g
tissue uptake at 4 h (in vivo; tumour accumulation): 6.6 ± 1.2 %ID/g
binding to CHL-GLP1R cells compared with the unconjugated peptide (CHL-GLP1R cells; 30 minutes and 4 hours incubation at 37 °C, approx. 50 pM, acid-releasable fraction): increased binding
internalisation (percentage of the total activity added) (CHL-GLP1R cells; CHL-GLP1R cells, 4 hours incubation at 37 °C, approx. 50 pM 111In-labelled peptide in RPMI-1640 with 0.5% BSA, acid wash then NaOH lysis, γ-counter, mean ± SD of three wells): 17.7 ± 0.5%
